Source: patent US5126367A, “Psychotropic benzodioxan derivatives” (American Home Products Corporation, priority 1991, dated 1992)

Key:
[1] = target: T1, dopamine D-2 receptor (Rattus norvegicus, UniProt P61169); assay: D-2 Binding: displacement of 3H-spiroperidol in homogenized limbic brain tissue
T1 construct: from tissue; host or cells: homogenized limbic brain tissue
Method: High affinity for the dopamine D2 receptor was established by the standard experimental test procedure of Fields, et al., Brain Res., 136, 578 (1977) and Yamamura et al., eds., Neurotransmitter Receptor Binding, Raven Press, New York (1978) wherein homogenized limbic brain tissue is incubated with ^3 H-spiroperidol and various concentrations of test compound, filtered and washed and shaken with Hydrofluor scintillation cocktail (National Diagnostics) and counted in a Packard 460 CD scintillation counter.

[2] = target: T2, serotonin 5-HT1A receptor (Rattus norvegicus, UniProt P19327); assay: 5-HT1A Binding: displacement of [3H] 8-OHDPAT
T2 construct: following the procedure of Hall et al., J. Neurochem; 44, 1685 (1985); from tissue; host or cells: brain tissue (from the cited method)
T2 sequence (P19327 1-422): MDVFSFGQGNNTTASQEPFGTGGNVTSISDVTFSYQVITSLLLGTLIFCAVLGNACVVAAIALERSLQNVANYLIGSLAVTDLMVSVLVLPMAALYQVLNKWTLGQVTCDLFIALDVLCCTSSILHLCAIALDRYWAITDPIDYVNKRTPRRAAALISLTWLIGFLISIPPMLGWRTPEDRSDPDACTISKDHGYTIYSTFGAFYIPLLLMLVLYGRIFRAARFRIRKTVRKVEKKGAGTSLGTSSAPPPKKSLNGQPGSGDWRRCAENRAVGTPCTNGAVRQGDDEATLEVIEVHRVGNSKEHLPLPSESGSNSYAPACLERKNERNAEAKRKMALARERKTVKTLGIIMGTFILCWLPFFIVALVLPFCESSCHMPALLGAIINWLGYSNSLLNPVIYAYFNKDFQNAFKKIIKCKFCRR
Text: High affinity for the serotonin 5-HT1A receptor was established by testing the claimed compound's ability to displace [^3 H] 8-OHDPAT (dipropylaminotetralin) from the 5-HT1A serotonin receptor following the procedure of Hall et al., J. Neurochem. 44, 1685 (1985). […] The anxiolytic activity of buspirone is believed to be, at least partially, due to its 5-HT1A receptor affinity (Vander Maclen et al., Eur. J. Pharmacol. 1986, 129 (1-2) 133-130).

[3] = system: serotonin syndrome (5-HT1A); assay: Production of the serotonin syndrome (agonist activity); format: in vivo, male Sprague-Dawley CD rats; settings: for ED50: Rattus norvegicus, 0.25 h, first 15 minutes after compound administration, read-out: ED50 for producing the serotonin syndrome
Method: (§1) Certain of the compounds of this invention were also compared to buspirone in their ability to either produce or antagonize the serotonin syndrome according to the procedure of Smith and Peroutka, Pharmacol. Biochem. Behav. 24: 1513-1519, 1986, in which 250-350 g male Sprague-Dawley CD rats (Charles River) are given either test compound or vehicle and placed individually into plexiglass observation cages. Agonist activity of the compound is determined by scoring for the presence of the serotonin syndrome (forepaw treading, head weaving, tremor, hindlimb abduction, flattened body posture, and Straub tail) during the first 15 minutes after compound administration. Antagonist activity is then determined by a challenge with either of the 5-HT1A agonists 5-methoxy-N,N-dimethyltryptamine (5-MeODMT) or 8-hydroxydipropylaminotetralin.

[4] = system: serotonin syndrome (5-HT1A); assay: Antagonism of 5-HT1A agonist-induced (5-MeODMT or 8-OH-DPAT) serotonin syndrome; format: in vivo, male Sprague-Dawley CD rats; settings: for ED50: Rattus norvegicus, rats
Method: as §1

[5] = target: T2, serotonin 5-HT1A receptor; settings: buspirone, standard for anxiolytic activity; cited from earlier work
[6] = system: 5-HT1A receptor; settings: cited from earlier work

T1 sequence (P61169 whole entry): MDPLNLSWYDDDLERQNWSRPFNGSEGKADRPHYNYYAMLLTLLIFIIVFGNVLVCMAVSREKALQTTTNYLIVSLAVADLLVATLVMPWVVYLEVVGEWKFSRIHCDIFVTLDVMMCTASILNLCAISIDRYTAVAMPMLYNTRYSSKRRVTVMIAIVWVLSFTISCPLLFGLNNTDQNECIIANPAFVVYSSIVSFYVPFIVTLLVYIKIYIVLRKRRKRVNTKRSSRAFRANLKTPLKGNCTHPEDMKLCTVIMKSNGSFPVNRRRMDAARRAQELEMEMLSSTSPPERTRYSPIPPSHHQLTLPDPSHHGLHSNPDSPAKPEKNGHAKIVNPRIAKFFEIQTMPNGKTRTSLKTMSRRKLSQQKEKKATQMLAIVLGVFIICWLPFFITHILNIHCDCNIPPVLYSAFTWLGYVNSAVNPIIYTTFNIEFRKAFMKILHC

Structure (SMILES) | inhibition at 1 µM [1] [%] | inhibition at 0.1 µM [2] [%] | also measured
CC1(C)C2CCC1(C(=O)NCCNCC1COc3ccccc3O1)C(=O)C2 (single isomer, unassigned; (-)) [Example 6] | 34 | 88 | characterization as agonist/antagonist in the serotonin syndrome test ([3]; single dose of 20 mg/kg): partial agonist
O=C1CC2(CCCC2)CC(=O)N1CCCCN1CCN(c2ncccn2)CC1 [buspirone, reference compound] | – | – | ED50 ([3]; rats): 7.3 mg/kg; characterization as agonist/antagonist in the serotonin syndrome test ([3]; buspirone: from ED50s for production and antagonism): partial agonist; ED50 ([4]; challenge with 5-MeODMT, read-out: ED50 for antagonizing 5-MeODMT-induced syndrome): 4.6 mg/kg; affinity for the 5-HT1A serotonin receptor subtype (in words) [5]: potent affinity
CC1(C)C2CCC1(C(=O)NCCNCC1COc3ccccc3O1)C(=O)C2 (single isomer, unassigned; (+)) [Example 5, (+)-N-[2-[[(2,3-Dihydro-1,4-benzodioxin-2-yl)methyl]amino]ethyl]-7,7-dimethyl-2-oxobicyclo[2,2,1]heptane-1-carboxamide] | 34 | 97 | EC50 ([2]; 5-HT1A binding, given as EC50): 3 nM; ED50 ([3]; rats): 3.8 mg/kg; ED50 ([4]; challenge with 8-OH-DPAT, read-out: ED50 for antagonizing 8-OH-DPAT induced syndrome): 4.7 mg/kg
O=C(NCCNCC1COc2ccccc2O1)NC12CC3CC(CC1C3)C2 (stereo not drawn) [Example 4, N-[2-[(2,3-Dihydro-1,4-benzodioxin-2-yl)methyl]aminoethyl-N'-hexahydro-2,5-methanopentalen-3a(1H)-yl]urea] | 55 | 95 | –
CC1(C)[C@H]2CC[C@]1(CS(=O)(=O)NCCNCC1COc3ccccc3O1)C(=O)C2 (single isomer, unassigned) [Example 8] | 49 | 90 | IC50 ([2]; 5-HT1A binding): 9 nM
O=C1CC2(CCCC2)CC(=O)N1CCCCNCC1COc2ccccc2O1 (stereo not drawn) [MDL 72832, 8-[4-(1,4-benzodioxan-2-ylmethylamino)butyl]-8-azaspiro[4.5]decane-7,9-dione] | – | – | 5-HT1A ligand character (in words) [6]: selective and stereospecific
O=C1CC2(CCCC2)CC(=O)N1CCCCNCC1COc2ccccc2O1 (single isomer, unassigned; (-)) [(-)-MDL 72832] | – | – | binding relative to the dextrorotary isomer at the 5-HT1A receptor site ([6]; (-)-isomer vs dextrorotary isomer): 32 times
O=C(NCCNCC1COc2ccccc2O1)C12CC3CC(CC1C3)C2 (stereo not drawn) [Example 7, N-[2-[[(2,3-Dihydro-1,4-benzodioxin-2-yl)methyl]amino]ethyl]hexahydro-2,5-methanopentalene-3a(1H)-carboxamide] | 81 | 98 | –
O=C(NCCNCC1COc2ccccc2O1)C12CC3CC(CC(C3)C1)C2 (stereo not drawn) [Example 1, N-[2-[[(2,3-Dihydro-1,4-benzodioxin-2-yl)methyl]amino]ethyl]tricyclo[3,3,1,1(3,7)]-decane-1-carboxamide] | 83 | 100 | –
O=C(NCCNCC1COc2ccccc2O1)NC12CC3CC(CC(C3)C1)C2 (stereo not drawn) [Example 3, N-[2-[(2,3-Dihydro-1,4-benzodioxin-2-yl)methylamino]ethyl]-N'-tricyclo[3,3,1,1(3,7)]dec-1-ylurea] | 27 | 98 | IC50 ([2]; 5-HT1A binding): 5 nM; production of the serotonin syndrome on its own ([3]; compound alone, rats): did not produce the syndrome on its own; ability to antagonize the serotonin syndrome ([4]; 1.0, 3.3, 10.0, and 33.0 mg/kg): mimicked buspirone's ability to antagonize the serotonin syndrome
O=C(OCCNCC1COc2ccccc2O1)C12CC3CC(CC(C3)C1)C2 (stereo not drawn) [Example 2, Tricyclo[3,3,1,1(3,7)]decane-1-carboxylic acid 2-[[(2,3-dihydro-1,4-benzodioxin-2-yl)methyl]amino]ethyl ester] | 91 | 100 | –
